Calls of active or inactive are those of the source. No rule for the calls is given here.
How the values were obtained:
Test in all cases: LYPLA1 inhibition and serine hydrolase selectivity, late-stage follow-up, fluorescence, gel-based ABPP, mouse proteome (AID 504520);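 also: soluble proteome from BW5147 murine T cells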
Settings in all cases: FP-rhodamine fluorescence, stronger effect = higher value
[1] = target: Platelet-activating factor acetylhydrolase 2, cytoplasmic (Mus musculus) (UniProt Q8VDG7)
Platelet-activating factor acetylhydrolase 2, cytoplasmic (Mus musculus), sequence (Q8VDG7 whole entry, looked up): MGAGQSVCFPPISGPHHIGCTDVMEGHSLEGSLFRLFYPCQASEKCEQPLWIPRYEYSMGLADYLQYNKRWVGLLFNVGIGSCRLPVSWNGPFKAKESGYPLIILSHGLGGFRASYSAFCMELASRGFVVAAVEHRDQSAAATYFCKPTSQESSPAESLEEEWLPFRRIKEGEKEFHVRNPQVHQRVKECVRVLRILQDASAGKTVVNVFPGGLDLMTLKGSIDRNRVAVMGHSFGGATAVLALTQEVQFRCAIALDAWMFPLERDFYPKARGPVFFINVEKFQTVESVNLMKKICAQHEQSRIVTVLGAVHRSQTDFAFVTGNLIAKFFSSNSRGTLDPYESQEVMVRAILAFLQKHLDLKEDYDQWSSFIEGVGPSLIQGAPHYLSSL

ABHD11 = system: ABHD11
LYPLA1 = system: LYPLA1
LYPLA2 = system: LYPLA2
ESD = system: ESD

Compound | inhibition ([1]; PAFAH2, at 0.75 µM) | inhibition ([1]; PAFAH2, inhibition, at 0.03 µM) | inhibition ([1]; PAFAH2, inhibition, at 0.15 µM) | inhibition (ABHD11; at 0.75 µM) | inhibition (ABHD11; inhibition, at 0.03 µM) | inhibition (ABHD11; inhibition, at 0.15 µM) | inhibition (LYPLA1; at 0.75 µM) | inhibition (LYPLA1; inhibition, at 0.03 µM) | inhibition (LYPLA1; inhibition, at 0.15 µM) | inhibition (LYPLA2; at 0.75 µM) | inhibition (LYPLA2; inhibition, at 0.03 µM) | inhibition (LYPLA2; inhibition, at 0.15 µM) | inhibition (ESD; at 0.75 µM) | inhibition (ESD; inhibition, at 0.03 µM) | inhibition (ESD; inhibition, at 0.15 µM)
O=C(N(c1ccccc1)c1ccc2ccccc2c1)n1ncc(C(O)(c2ccccc2)c2ccccc2)n1 | 25% (inactive) | 0% | 0% | 100% | 0% | 100% | 0% (inactive) | 0% | 0% | 0% (inactive) | 0% | 0% | 0% (inactive) | 0% | 0%
O=C(N(c1ccccc1)c1ccccc1)n1ncc(-c2ccc(Oc3ccccc3)cc2)n1 | 75% (inactive) | 0% | 0% | 0% (inactive) | 0% | 0% | 0% (inactive) | 0% | 0% | 0% (inactive) | 0% | 0% | 0% (inactive) | 0% | 0%
CCC1CCCCN1C(=O)n1ncc(C(O)(c2ccccc2)c2ccccc2)n1 (stereo not given) | 0% (inactive) | 0% | 0% | 100% | 100% | 100% | 0% (inactive) | 0% | 0% | 0% (inactive) | 0% | 0% | 0% (inactive) | 0% | 0%
O=C(N(c1ccccc1)c1ccccc1)n1ncc(-c2cc(F)cc(F)c2)n1 | 50% (inactive) | 0% | 0% | 50% (inactive) | 0% | 0% | 0% (inactive) | 0% | 0% | 0% (inactive) | 0% | 0% | 0% (inactive) | 0% | 0%
COCCCC1CCCCN1C(=O)n1ncc(C(O)(c2ccccc2)c2ccccc2)n1 (stereo not given) | 0% (inactive) | 0% | 0% | 75% | 0% | 50% | 0% (inactive) | 0% | 0% | 0% (inactive) | 0% | 0% | 0% (inactive) | 0% | 0%
CC(C)CC(O)(CC(C)C)c1cnn(C(=O)N(c2ccccc2)c2ccccc2)n1 | 0% (inactive) | 0% | 0% | 50% (inactive) | 0% | 0% | 0% (inactive) | 0% | 0% | 0% (inactive) | 0% | 0% | 0% (inactive) | 0% | 0%

Reference: PubChem BioAssay AID504520 (The Scripps Research Institute Molecular Screening Center, 2011)
